How the values were obtained:
adult rat DRG neurons = assay: Neurite outgrowth in dissociated adult rat dorsal root ganglion cultures; format: cell-based; conditions: 72h; BYL719 500 nM with 1938 above 10^-7 M
Description: Dissociated adult rat dorsal root ganglion (DRG) cultures were used as an in vitro model for neuroregeneration[80],[81]. DRG neurons were isolated from adult male (>250g) Wistar rats as described, with DRGs from each rat cultured separately. Following culling via schedule 1 (rising concentration of CO2), the spinal column was removed and stored in PBS on ice. Cord tissue was removed to expose the DRGs and roots in the intervertebral foramen and the DRGs removed with forceps and scalpel under a dissecting microscope (Olympus SZ40). DRGs were manually cleaned by removal of roots, capsule and capillaries with forceps and then placed in DMEM supplemented with P/S. DRGs were treated with 0.125% collagenase type IV solution at 37°C for 90 min, and then mechanically dissociated by trituration using a 1 ml pipette. The collagenase solution was removed by 2 rounds of centrifugation in complete DMEM (DMEM with 1% P/S and 10% FBS) at 400 xg for 5 min, followed by resuspension of the DRG cell pellet in complete DMEM supplemented with 0.01 mM cytosine arabinoside. DRGs were plated in 75-cm[2] flasks coated with 0.1 mg/ml poly-D-lysine and incubated at 37°C, 5% CO2. […] 9 fields per well were captured and analysed using the CSIRO Neurite Analysis 2 […] in Columbus analysis software (Perkin Elmer). […]

full length p110α/p85α = target: T1, full length p110α/p85α (Homo sapiens, UniProt P42336); assay: Surface plasmon resonance; format: binding; conditions: immobilized p110α/p85α; read-out: Kd for PI3Kα by surface plasmon resonance
T1 construct: Full-length human p110α was expressed either in a complex with full-length human p85α (for HTS, biochemistry and HDX-MS); 6xHis tag followed by TEV protease site (N); host or cells: Spodoptera frugiperda Sf9, baculovirus
T1 sequence (P42336 whole entry): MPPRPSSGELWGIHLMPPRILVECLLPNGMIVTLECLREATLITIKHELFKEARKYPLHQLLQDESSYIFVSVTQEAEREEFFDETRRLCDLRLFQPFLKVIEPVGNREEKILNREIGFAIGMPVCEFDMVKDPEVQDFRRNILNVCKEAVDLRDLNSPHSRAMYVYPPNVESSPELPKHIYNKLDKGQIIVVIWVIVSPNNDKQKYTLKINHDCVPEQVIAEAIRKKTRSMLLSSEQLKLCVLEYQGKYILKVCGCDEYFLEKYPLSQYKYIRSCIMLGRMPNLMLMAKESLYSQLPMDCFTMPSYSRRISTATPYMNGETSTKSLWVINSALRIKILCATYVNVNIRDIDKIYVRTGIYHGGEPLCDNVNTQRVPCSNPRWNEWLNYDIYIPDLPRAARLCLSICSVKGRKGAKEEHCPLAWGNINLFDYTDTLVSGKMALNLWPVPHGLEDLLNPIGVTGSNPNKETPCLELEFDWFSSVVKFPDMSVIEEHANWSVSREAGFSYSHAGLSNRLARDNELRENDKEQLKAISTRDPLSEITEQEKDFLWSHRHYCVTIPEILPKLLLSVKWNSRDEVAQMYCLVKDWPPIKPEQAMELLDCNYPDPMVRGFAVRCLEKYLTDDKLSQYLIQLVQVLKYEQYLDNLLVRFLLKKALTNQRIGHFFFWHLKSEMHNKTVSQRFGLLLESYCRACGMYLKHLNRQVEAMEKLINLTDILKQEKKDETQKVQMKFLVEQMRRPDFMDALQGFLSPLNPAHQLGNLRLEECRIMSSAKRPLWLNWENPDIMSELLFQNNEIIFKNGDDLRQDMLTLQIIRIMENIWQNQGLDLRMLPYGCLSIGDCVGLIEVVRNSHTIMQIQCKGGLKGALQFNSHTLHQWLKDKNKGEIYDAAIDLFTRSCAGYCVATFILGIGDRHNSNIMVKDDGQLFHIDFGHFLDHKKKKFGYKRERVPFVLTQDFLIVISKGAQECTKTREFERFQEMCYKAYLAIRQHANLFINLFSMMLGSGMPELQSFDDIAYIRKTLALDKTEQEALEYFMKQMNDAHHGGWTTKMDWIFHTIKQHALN
T1 sequence (P27986 whole entry partner): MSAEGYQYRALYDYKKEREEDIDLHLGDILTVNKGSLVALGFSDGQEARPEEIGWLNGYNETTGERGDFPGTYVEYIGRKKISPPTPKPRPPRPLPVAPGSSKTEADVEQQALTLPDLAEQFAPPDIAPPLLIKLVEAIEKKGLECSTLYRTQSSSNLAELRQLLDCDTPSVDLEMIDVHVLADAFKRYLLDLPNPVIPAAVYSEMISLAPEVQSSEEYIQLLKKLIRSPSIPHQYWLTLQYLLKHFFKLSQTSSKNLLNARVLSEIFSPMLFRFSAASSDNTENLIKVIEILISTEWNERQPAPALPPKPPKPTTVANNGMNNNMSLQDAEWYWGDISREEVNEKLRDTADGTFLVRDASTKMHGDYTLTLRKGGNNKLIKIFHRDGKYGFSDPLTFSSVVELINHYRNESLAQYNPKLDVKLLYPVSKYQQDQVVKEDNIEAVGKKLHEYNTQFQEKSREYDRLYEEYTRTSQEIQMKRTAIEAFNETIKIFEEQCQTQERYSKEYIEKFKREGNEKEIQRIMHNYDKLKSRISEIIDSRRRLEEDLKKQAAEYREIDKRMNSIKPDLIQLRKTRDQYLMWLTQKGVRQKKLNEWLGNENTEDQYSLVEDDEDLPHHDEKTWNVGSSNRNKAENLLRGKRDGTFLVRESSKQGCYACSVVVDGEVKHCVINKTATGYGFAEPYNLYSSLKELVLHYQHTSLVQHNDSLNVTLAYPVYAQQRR
Procedure: SPR was performed with a Biacore T200, using CM7-sensor chips (Cytiva). Both reference control and analyte channels were equilibrated in HBS-P (Cytiva) supplemented with 5% (v/v) DMSO at 20°C. Full length p110α/p85α was immobilised onto the chip surface via amide coupling using the supplied kit (Cytiva) to reach an RU value of approximately 25,000 RU. Serial dilutions (1:2) of 1938 starting from 500 μM were injected over the chip for 60 s at 30 μL/min, with a 60 sec dissociation time. The data were double-referenced to the response on a blank but similarly modified flow channel and a buffer-only injection was subtracted. Any differences in the DMSO concentrations between the sample and buffer were corrected using the in-built solvent correction protocol. After reference and buffer signal correction, sensogram data were fitted using Prism 9.4.1 (GraphPad Software Inc). The responses at equilibrium (Req) of the were then fitted to a 1:1 binding model with a linear non-specific phase to determine Kd: (1) Req=(CRmax/C+Kd)+DC+B where C is the analyte concentration and Rmax is the maximum response at saturation, D is a non-specific response and B is the background resonance. Data were replotted correcting for the linear non-specific response. The binding was performed in triplicate.

MEFs = assay: Phosphoinositide quantification by mass spectrometry, MEFs; format: cell-based, mouse
Procedure: A549 cells (5.10^5) or wild-type MEFs (3.10^5) were plated in complete media onto 3.5 cm dishes or 60 mm dishes respectively for 24 h, prior to FCS-free starvation media for 16 h. MEFs, in addition, were supplemented with arachidonic acid in the FCS-free starvation media as previously described. […] Reactions were terminated in 600 μl ice-cold 1 M HCl and cells scraped and resuspended, then divided into two equal samples in eppendorfs. […] The data are shown as response ratios, calculated by normalizing the multiple reaction monitoring (MRM)-targeted lipid integrated response area to that of a known amount of relevant internal standard. To account for any cell input variability, PIP3 response ratios were normalized to C38:4-PI response ratios; while PI(3,4)P2 response ratios were normalised to PI(4,5)P2 response ratios. Data shown are mean ±SD for n ≥3, except for non-DMSO control in MEF PIP3 measurements where n=1.

CCN1CCN(c2ccc(Nc3cc(Nc4cccc5c4N(C(C)=O)CC5)ccn3)cc2)CC1 [Compound 1938]
neurite outgrowth (total length of neurites) (adult rat DRG neurons): doubling the total length of neurites
Kd (full length p110α/p85α): 36 ± 5 µM
time for which maximal PIP3 level is maintained (MEFs): up to 40 min
time of maximal PIP3 level (MEFs): 5 min
time to increased PIP3 levels (MEFs): ≤ 30 s
concentration at which PIP3 induction plateaus (MEFs; 2 min): around 10 μM
PIP3 levels compared with insulin and PDGF (MEFs; 2 min time point): comparable to those induced by insulin
EC50 (MEFs; Mus musculus, 2 min, read-out: EC50 of PIP3 induction): ~5 µM

Reference: publication PMC7614683, “A small molecule PI3Kα activator for cardioprotection and neuroregeneration” (Nature, 2023)
